According to patent US11413264B2, “Carbamoyl phenylalaninol analogs and uses thereof” (Jazz Pharmaceuticals Ireland Limited, priority 2017, dated 2022):
Counter-ions that a name gives are not always drawn. Like-named read-outs stand apart in the source and are kept apart here.

Experiments:
[1] = target: T1, norepinephrine transporter (NET) (Homo sapiens, UniProt P23975); experiment: Competitive radioligand binding assay, norepinephrine transporter (antagonist radioligand); settings: compound at 10 μM; for binding to the norepinephrine transporter (in words): summary
T1 construct: expressed in transfected cells; host or cells: CHO cells (membrane fractions)
T1 sequence (P23975 whole entry): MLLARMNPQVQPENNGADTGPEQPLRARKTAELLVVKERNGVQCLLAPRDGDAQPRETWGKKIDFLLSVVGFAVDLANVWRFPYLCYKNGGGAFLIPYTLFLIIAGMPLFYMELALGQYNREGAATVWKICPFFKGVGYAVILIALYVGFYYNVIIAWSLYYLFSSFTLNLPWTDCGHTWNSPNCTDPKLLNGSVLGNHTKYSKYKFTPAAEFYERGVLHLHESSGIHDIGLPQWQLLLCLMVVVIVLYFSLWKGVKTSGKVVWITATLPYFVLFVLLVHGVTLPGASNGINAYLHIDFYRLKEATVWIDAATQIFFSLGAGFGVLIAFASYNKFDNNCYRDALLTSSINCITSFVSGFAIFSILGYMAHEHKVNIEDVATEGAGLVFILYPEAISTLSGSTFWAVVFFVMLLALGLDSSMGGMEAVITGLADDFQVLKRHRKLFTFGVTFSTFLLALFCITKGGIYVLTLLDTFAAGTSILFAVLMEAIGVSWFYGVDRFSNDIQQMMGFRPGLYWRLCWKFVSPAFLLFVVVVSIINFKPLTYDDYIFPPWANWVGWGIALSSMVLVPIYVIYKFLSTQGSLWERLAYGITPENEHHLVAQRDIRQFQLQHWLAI
Method: (§1) Compounds of the invention were tested for pharmacological activity in comparison to APC. Eight binding assays were carried out to provide a binding profile for each compound, including binding to dopamine transporter (DAT), norepinephrine transporter (NET), serotonin (5-HT) transporter (SERT), alpha2A adrenergic receptor (Alpha2A), alpha2C adrenergic receptor (Alpha2C), D2S dopamine receptor (D2S), D2L dopamine receptor (D2L), and vesicular monoamine transporter (VMAT2). Competitive binding assays using a radiolabeled ligand were carried out with each compound at 10 μM. The radioligand for each target was as follows: DAT—BTCP, NET—nisoxetine, SERT—imipramine, Alpha2A—yohimbine, Alpha2C—yohimbine, D2S—7-OH-DPAT, D2L—methylspiperone, VMAT2—tetrabenazine. The source of the receptors and transporters were prepared cell membrane fractions.

[2] = target: T2, vesicular monoamine transporter (VMAT2) (Rattus norvegicus, UniProt Q01827); experiment: Competitive radioligand binding assay, VMAT2 transporter (antagonist radioligand); settings: compound at 10 μM
T2 construct: Rat brain; from tissue; host or cells: rat brain minus cerebellum, membrane fraction
T2 sequence (Q01827 whole entry): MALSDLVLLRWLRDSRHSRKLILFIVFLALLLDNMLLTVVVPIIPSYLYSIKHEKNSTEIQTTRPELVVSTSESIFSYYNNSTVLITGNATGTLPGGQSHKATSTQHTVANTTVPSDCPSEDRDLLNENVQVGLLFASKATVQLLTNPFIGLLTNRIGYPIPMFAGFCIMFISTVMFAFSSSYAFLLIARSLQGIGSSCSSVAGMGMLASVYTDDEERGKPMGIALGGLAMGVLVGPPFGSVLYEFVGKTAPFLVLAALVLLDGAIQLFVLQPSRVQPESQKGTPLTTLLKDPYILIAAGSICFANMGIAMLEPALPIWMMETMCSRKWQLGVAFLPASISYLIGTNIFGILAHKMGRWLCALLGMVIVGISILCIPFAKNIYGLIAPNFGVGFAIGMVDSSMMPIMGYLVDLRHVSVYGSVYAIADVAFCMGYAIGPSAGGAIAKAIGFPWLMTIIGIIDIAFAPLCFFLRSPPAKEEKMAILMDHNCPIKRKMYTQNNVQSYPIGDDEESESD
Method: as §1

[3] = target: T3, alpha2C adrenergic receptor (Alpha2C) (Homo sapiens, UniProt P18825); experiment: Competitive radioligand binding assay, α2C (antagonist radioligand); settings: compound at 10 μM
T3 construct: expressed in transfected cells; host or cells: CHO cells (membrane fractions)
T3 sequence (P18825 1-462): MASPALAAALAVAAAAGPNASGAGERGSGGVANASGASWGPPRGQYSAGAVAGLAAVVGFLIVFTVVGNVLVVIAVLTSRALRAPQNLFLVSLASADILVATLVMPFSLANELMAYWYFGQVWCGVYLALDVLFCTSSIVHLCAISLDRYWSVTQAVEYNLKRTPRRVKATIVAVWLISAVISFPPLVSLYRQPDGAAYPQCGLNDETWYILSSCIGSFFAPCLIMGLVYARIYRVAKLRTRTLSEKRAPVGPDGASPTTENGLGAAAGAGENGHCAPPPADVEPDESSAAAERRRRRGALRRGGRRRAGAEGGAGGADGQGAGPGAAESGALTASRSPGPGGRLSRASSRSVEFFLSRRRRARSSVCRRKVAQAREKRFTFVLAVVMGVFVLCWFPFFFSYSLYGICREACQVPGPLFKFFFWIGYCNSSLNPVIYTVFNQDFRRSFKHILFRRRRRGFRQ
Method: as §1

[4] = target: T4, alpha2A adrenergic receptor (Alpha2A) (Homo sapiens, UniProt P08913); experiment: Competitive radioligand binding assay, α2A (antagonist radioligand); settings: compound at 10 μM
T4 construct: expressed in transfected cells; host or cells: CHO cells (membrane fractions)
T4 sequence (P08913 1-465): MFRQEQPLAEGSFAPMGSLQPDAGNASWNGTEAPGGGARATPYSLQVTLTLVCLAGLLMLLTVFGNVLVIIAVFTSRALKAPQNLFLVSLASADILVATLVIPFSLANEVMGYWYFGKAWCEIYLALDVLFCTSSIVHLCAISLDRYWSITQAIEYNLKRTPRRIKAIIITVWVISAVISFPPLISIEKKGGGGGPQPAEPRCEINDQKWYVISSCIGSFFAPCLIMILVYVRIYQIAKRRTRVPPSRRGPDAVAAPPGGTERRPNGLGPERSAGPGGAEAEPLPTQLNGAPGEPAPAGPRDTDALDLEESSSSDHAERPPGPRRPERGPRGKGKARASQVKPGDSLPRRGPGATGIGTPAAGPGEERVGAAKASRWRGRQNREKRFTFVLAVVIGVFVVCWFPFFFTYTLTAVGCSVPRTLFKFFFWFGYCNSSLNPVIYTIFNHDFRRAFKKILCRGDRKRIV
Method: as §1

[5] = target: T5, D2L dopamine receptor (D2L) (Homo sapiens, UniProt P14416); experiment: Competitive radioligand binding assay, D2L (antagonist radioligand); settings: compound at 10 μM
T5 construct: expressed in transfected cells; host or cells: HEK-293 cells (membrane fractions)
T5 sequence (P14416 whole entry): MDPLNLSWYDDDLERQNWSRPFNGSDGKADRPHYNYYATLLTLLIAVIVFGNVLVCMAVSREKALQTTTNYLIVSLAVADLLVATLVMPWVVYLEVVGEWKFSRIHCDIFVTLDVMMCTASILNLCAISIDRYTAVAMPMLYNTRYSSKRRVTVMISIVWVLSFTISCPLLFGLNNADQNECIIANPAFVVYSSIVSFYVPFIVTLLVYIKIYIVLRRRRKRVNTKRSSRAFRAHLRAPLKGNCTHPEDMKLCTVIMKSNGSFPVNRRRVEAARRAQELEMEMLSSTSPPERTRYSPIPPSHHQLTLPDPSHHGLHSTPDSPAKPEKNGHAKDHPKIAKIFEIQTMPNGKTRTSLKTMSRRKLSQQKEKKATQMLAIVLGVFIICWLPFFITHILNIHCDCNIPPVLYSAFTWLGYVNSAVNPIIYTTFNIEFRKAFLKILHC
Method: as §1

[6] = target: T6, dopamine transporter (DAT) (Homo sapiens, UniProt Q01959); experiment: Competitive radioligand binding assay, dopamine transporter (antagonist radioligand); settings: compound at 10 μM; for binding to the dopamine transporter (in words): summary
T6 construct: expressed in transfected cells; host or cells: CHO cells (membrane fractions)
T6 sequence (Q01959 whole entry): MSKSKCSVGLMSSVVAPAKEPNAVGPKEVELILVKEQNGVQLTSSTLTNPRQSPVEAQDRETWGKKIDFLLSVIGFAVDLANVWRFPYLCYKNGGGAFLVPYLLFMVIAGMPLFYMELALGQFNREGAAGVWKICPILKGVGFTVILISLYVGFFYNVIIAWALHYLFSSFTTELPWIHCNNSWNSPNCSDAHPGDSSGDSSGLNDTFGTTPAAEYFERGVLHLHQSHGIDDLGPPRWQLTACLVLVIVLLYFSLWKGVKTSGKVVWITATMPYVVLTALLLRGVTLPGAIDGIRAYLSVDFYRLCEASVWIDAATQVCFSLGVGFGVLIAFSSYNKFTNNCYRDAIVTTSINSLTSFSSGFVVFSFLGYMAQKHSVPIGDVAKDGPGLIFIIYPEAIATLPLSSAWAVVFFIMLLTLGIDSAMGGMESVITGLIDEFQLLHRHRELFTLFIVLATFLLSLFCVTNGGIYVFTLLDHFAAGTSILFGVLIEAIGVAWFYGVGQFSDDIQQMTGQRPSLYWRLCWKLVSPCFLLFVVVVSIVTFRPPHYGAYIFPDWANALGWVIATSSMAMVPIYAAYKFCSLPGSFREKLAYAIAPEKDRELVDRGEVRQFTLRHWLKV
Method: as §1

[7] = target: T7, serotonin (5-HT) transporter (SERT) (Homo sapiens, UniProt P31645); experiment: Competitive radioligand binding assay, 5-HT transporter (antagonist radioligand); settings: compound at 10 μM
T7 construct: expressed in transfected cells; host or cells: CHO cells (membrane fractions)
T7 sequence (P31645 whole entry): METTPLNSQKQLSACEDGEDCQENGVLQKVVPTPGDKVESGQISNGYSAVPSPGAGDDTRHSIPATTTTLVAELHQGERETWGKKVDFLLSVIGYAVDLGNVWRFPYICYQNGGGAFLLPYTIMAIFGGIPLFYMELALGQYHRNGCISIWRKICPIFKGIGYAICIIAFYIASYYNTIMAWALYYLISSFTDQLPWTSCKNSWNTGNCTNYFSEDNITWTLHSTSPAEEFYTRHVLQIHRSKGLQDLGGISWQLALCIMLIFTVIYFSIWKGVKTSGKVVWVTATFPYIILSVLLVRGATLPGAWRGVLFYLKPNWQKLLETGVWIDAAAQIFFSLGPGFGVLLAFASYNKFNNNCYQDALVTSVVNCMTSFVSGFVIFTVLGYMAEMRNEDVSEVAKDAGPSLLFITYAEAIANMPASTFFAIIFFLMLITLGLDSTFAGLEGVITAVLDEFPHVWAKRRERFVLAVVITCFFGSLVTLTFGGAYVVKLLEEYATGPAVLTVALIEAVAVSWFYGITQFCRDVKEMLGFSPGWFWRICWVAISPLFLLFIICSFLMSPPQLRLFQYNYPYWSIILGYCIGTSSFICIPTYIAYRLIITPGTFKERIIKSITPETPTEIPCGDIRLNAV
Method: as §1

[8] = target: T8, D2S dopamine receptor (D2S) (Homo sapiens, UniProt P14416); experiment: Competitive radioligand binding assay, D2S (agonist radioligand); settings: compound at 10 μM
T8 construct: expressed in transfected cells; host or cells: HEK-293 cells (membrane fractions)
T8 sequence (P14416 1-414 isoform P14416-2): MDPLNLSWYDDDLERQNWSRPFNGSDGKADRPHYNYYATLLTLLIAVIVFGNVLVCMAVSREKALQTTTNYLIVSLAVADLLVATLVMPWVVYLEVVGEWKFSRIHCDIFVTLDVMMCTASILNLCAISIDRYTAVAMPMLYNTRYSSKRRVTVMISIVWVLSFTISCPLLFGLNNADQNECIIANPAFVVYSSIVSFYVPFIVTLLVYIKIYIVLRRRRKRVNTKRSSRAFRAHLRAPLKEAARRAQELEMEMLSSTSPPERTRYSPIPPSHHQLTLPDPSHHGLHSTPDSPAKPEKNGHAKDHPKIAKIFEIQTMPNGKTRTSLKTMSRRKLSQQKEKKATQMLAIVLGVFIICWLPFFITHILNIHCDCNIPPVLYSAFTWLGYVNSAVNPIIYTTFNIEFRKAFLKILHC
Method: as §1

[9] = Norepinephrine transporter, 1st individual result, read-out: % inhibition of control specific binding, 1st
[10] = Norepinephrine transporter, 2nd individual result, read-out: % inhibition of control specific binding, 2nd
[11] = Norepinephrine transporter, mean, read-out: % inhibition of control specific binding, Mean
[12] = [3H]nisoxetine 1 nM, human recombinant (CHO cells), read-out: % Inhibition of Binding at Each Transporter or Receptor Target, NET
[13] = VMAT2 transporter, single value, read-out: % inhibition of control specific binding, 1st
[14] = [3H]dihydrotetrabenazine 10 nM, rat brain (minus cerebellum), read-out: % Inhibition of Binding at Each Transporter or Receptor Target, VMAT2
[15] = 1st individual result, read-out: % inhibition of control specific binding, 1st
[16] = 2nd individual result, read-out: % inhibition of control specific binding, 2nd
[17] = mean, read-out: % inhibition of control specific binding, Mean
[18] = D2L, 1st individual result, read-out: % inhibition of control specific binding, 1st
[19] = D2L, 2nd individual result, read-out: % inhibition of control specific binding, 2nd
[20] = D2L, mean, read-out: % inhibition of control specific binding, Mean
[21] = [3H]methyl-spiperone 0.3 nM, human recombinant (HEK-293 cells), read-out: % Inhibition of Binding at Each Transporter or Receptor Target, D2L
[22] = Dopamine transporter, 1st individual result, read-out: % inhibition of control specific binding, 1st
[23] = Dopamine transporter, 2nd individual result, read-out: % inhibition of control specific binding, 2nd
[24] = Dopamine transporter, mean, read-out: % inhibition of control specific binding, Mean
[25] = [3H]BTCP 4 nM, human recombinant (CHO cells), read-out: % Inhibition of Binding at Each Transporter or Receptor Target, DAT
[26] = 5-HT transporter, 1st individual result, read-out: % inhibition of control specific binding, 1st
[27] = 5-HT transporter, 2nd individual result, read-out: % inhibition of control specific binding, 2nd
[28] = 5-HT transporter, mean, read-out: % inhibition of control specific binding, Mean
[29] = [3H]imipramine 2 nM, human recombinant (CHO cells), read-out: % Inhibition of Binding at Each Transporter or Receptor Target, SERT
[30] = D2S, 1st individual result, read-out: % inhibition of control specific binding, 1st
[31] = D2S, 2nd individual result, read-out: % inhibition of control specific binding, 2nd
[32] = D2S, mean, read-out: % inhibition of control specific binding, Mean
[33] = [3H]7-OH-DPAT 1 nM, human recombinant (HEK-293 cells), read-out: % Inhibition of Binding at Each Transporter or Receptor Target, D2S

Row | Compound | inhibition at 10 µM [1, 9] [%] | inhibition at 10 µM [1, 10] [%] | inhibition at 10 µM [1, 11] [%] | inhibition at 10 µM [1, 12] [%] | inhibition at 10 µM [2, 13] [%] | inhibition at 10 µM [2, 14] [%] | inhibition at 10 µM [3, 15] [%] | inhibition at 10 µM [3, 16] [%] | inhibition at 10 µM [3, 17] [%] | inhibition at 10 µM [4, 15] [%] | inhibition at 10 µM [4, 16] [%] | inhibition at 10 µM [4, 17] [%] | inhibition at 10 µM [5, 18] [%] | inhibition at 10 µM [5, 19] [%] | inhibition at 10 µM [5, 20] [%] | inhibition at 10 µM [5, 21] [%] | inhibition at 10 µM [6, 22] [%] | inhibition at 10 µM [6, 23] [%] | inhibition at 10 µM [6, 24] [%] | inhibition at 10 µM [6, 25] [%] | other results
1 | NC(=O)NC[C@H](N)Cc1ccccc1 [Compound 3, (R)-1-(2-Amino-3-phenylpropyl)urea hydrochloride] | 42.6 | 23 | 32.8 | 32.8 | 0 | 0 | 8.6 | 22.6 | 15.6 | 1.7 | 7.8 | 4.8 | -6.7 | 7.6 | 0.5 | 0.5 | 86.8 | 90.5 | 88.6 | 88.6 | binding to the dopamine transporter (in words) [6]: substantial binding; inhibition at 10 µM [7, 26]: -2.4%; inhibition at 10 µM [7, 27]: -0.4%; inhibition at 10 µM [7, 28]: -1.4%; inhibition at 10 µM [7, 29]: -1.4%; inhibition at 10 µM [8, 30]: -1.6%; inhibition at 10 µM [8, 31]: 0.2%; inhibition at 10 µM [8, 32]: -0.7%; inhibition at 10 µM [8, 33]: -0.7%
2 | NC(=O)CC[C@H](N)Cc1ccccc1 [Compound 4, (S)-4-Amino-5-phenylpentanamide hydrochloride] | 7 | -21.9 | -7.5 | -7.5 | 0 | 0 | 3.4 | 2.3 | 2.9 | 7.8 | -9.3 | -0.8 | 1.4 | 0.8 | 1.1 | 1.1 | 52.9 | 60 | 56.5 | 56.5 | binding to the dopamine transporter (in words) [6]: substantial binding; inhibition at 10 µM [7, 26]: -2.9%; inhibition at 10 µM [7, 27]: 1.8%; inhibition at 10 µM [7, 28]: -0.5%; inhibition at 10 µM [7, 29]: -0.5%; inhibition at 10 µM [8, 30]: -8.2%; inhibition at 10 µM [8, 31]: -3.7%; inhibition at 10 µM [8, 32]: -6%; inhibition at 10 µM [8, 33]: -6%
3 | N[C@@H](COS(N)(=O)=O)Cc1ccccc1 [Compound 9, (R)-2-Amino-3-phenylpropyl sulfamate hydrochloride] | -3.7 | 14 | 5.1 | 5.1 | 16 | 16 | 65.8 | 60.9 | 63.4 | 65.7 | 70.8 | 68.3 | -2.2 | -6.8 | -4.5 | -4.5 | 26.4 | 44 | 35.2 | 35.2 | binding to the norepinephrine transporter (in words) [1]: substantial binding; binding to the dopamine transporter (in words) [6]: substantial; inhibition at 10 µM [7, 26]: -1.7%; inhibition at 10 µM [7, 27]: -3.7%; inhibition at 10 µM [7, 28]: -2.7%; inhibition at 10 µM [7, 29]: -2.7%; inhibition at 10 µM [8, 30]: 45.3%; inhibition at 10 µM [8, 31]: 33.7%; inhibition at 10 µM [8, 32]: 39.5%; inhibition at 10 µM [8, 33]: 39.5%
4 | NC(=O)OC[C@H](N)Cc1ccccc1 [APC, (R)-2-amino-3-phenylpropyl carbamate, reference compound] | 6.9 | 16 | 11.4 | 11.4 | 7 | 7 | 4.1 | 2.3 | 3.2 | 5.2 | 8.7 | 7 | -0.1 | 4.6 | 2.3 | 2.3 | 79.3 | 81.1 | 80.2 | 80.2 | binding to the dopamine transporter (in words) [6]: substantial binding; inhibition at 10 µM [7, 26]: -6.3%; inhibition at 10 µM [7, 27]: -3.3%; inhibition at 10 µM [7, 28]: -4.8%; inhibition at 10 µM [7, 29]: -4.8%; inhibition at 10 µM [8, 30]: 0.7%; inhibition at 10 µM [8, 31]: 8.2%; inhibition at 10 µM [8, 32]: 4.4%; inhibition at 10 µM [8, 33]: 4.4%
5 | NC(=S)OC[C@H](N)Cc1ccccc1 [Compound 8, (R)—O-(2-Amino-3-phenylpropyl) carbamothioate dihydrochloride] | 29.5 | 46.1 | 37.8 | 37.8 | 6 | 6 | 50.6 | 47 | 48.8 | 60 | 61.3 | 60.6 | -0.5 | 2.7 | 1.1 | 1.1 | 67.9 | 95.4 | 81.6 | 81.6 | binding to the norepinephrine transporter (in words) [1]: substantial binding; binding to the dopamine transporter (in words) [6]: substantial; inhibition at 10 µM [7, 26]: -1.9%; inhibition at 10 µM [7, 27]: -2.4%; inhibition at 10 µM [7, 28]: -2.1%; inhibition at 10 µM [7, 29]: -2.1%; inhibition at 10 µM [8, 30]: 33.5%; inhibition at 10 µM [8, 31]: 21.4%; inhibition at 10 µM [8, 32]: 27.4%; inhibition at 10 µM [8, 33]: 27.4%
